Assay results as given in paper PMC9229919, “4-Aminoquinoline-Based Adamantanes as Potential Anticholinesterase Agents in Symptomatic Treatment of Alzheimer’s Disease” (Pharmaceutics, 2022).
Where two headings read alike, the source gives them in different places.

Tests used:
[1] = Ferric reducing antioxidant power (FRAP) assay; settings: for FRAP: mean ± standard error of three experiments;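 for FRAP: expressed as µM Fe2+ equivalents from an FeSO4·7H2O standard curve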
Protocol: . All the chemicals were purchased from Sigma-Aldrich (St. Louis, MO, USA), except for tripyridyltriazine (TPTZ) (Fluka, Buchs, Switzerland) and FeCl3 (Kemika, Zagreb, Croatia). The FRAP assay was assessed according to Benzie and Strain [53] with slight procedure adjustments for 96-well microplates. The method is based on the reduction of the ferric-tripyridyltriazine (Fe^3+-TPTZ) complex to ferrous tripyridyltriazine (Fe^2+-TPTZ) by the action of electron-donating compounds at a low pH. Briefly, the FRAP reagent was prepared by mixing acetate buffer (300 mM, pH 3.6), a solution of 10 mM TPTZ in 40 mM HCl, and 20 mM FeCl3 at 10:1:1 (v/v/v). Then, 240 μL of FRAP reagent and 10 μL of sample solution were added to a 96-well plate and incubated at 37 °C for 60 min. The absorbance was measured at 593 nm using a microplate reader (Infinite M200PRO, Tecan Austria GmbH, Salzburg, Austria) against a blank. The reducing capacity was determined for 10 and 100 µM compound concentrations. […]. All measurements were performed in three independent experiments. FRAP values, denominating the reduction of ferric-tripyridyltriazine (Fe^3+-TPTZ) to ferrous tripyridyltriazine (Fe^2+-TPTZ) by 4-aminoquinolines were calculated based on a standard curve obtained using […].

[2] = target: T1, recombinant human AChE (Homo sapiens, UniProt P22303); test: biochemical; format: biochemical; settings: for IS: IS = Ki(BChE)/Ki(AChE), IS > 1 selective to AChE
T1 construct: gift of Dr Florian Nachon (Armed Forces Biomedical Research Institute, Brétigny-sur-Orge, France)
T1 sequence (P22303 32-614): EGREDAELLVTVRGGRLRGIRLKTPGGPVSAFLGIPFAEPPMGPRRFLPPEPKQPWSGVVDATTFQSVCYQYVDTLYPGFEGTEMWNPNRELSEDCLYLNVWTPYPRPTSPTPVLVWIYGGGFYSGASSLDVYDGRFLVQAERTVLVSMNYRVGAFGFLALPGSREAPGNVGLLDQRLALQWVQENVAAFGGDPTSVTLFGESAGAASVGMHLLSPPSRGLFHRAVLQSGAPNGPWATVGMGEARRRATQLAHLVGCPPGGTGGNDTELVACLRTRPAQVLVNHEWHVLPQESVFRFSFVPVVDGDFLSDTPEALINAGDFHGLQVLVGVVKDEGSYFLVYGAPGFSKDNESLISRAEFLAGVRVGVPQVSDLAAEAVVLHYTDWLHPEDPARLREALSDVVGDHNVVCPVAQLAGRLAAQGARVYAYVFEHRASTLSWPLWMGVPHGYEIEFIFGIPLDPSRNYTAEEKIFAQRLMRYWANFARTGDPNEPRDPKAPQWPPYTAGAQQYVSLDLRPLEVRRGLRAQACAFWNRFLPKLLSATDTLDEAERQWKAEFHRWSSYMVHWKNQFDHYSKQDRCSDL
Protocol: (§1) Acetylthiocholine (ATCh) and 5,5′-dithiobis(2-nitrobenzoic acid) (DTNB) were purchased from Sigma-Aldrich, St. Louis, MO, USA. ATCh was dissolved in water and DTNB in 0.1 M sodium phosphate buffer (pH 7.4). The 4-aminoquinilines were dissolved in DMSO and all further dilutions were made in water.
(§2) The sources of AChE and BChE were purified human BChE and recombinant human AChE that was kindly provided by Dr Florian Nachon (Département de Toxicologie, Armed Forces Biomedical Research Institute, Brétigny-sur-Orge, France). […] The enzymes were diluted in sodium phosphate buffer 0.1 M (pH 7.4) containing 0.1% BSA.
(§3) Enzyme activities were measured spectrophotometrically using a slightly modified Ellman method, as described earlier. […] At least three inhibitor concentrations for each substrate concentration were used in at least three experiments. The apparent inhibition constant (Ki,app) was calculated using the Hunter–Downs Equation and linear regression analysis:(1) Ki,app=vi·i/v0−vi=Ki+Ki/KS·s where the y-intercept determines the enzyme-inhibitor dissociation constant (Ki), while the x-intercept determines the enzyme-substrate dissociation constant, KS.
(§4) The Hunter–Downs Equation was used under the assumption that the substrate, due to relatively low concentrations used in experiments, would bind only to the catalytic site of the enzymes, while the inhibitors would bind to both CAS and/or PAs. This allowed the type of inhibition to be determined from Ki,app vs. substrate concentration ([S]) dependency on Hunter–Downs plot.
(§5) The final content of DMSO in the measurements was up to 0.2%. […] The measurements were performed at 25 °C on a Tecan Infinite M200Pro plate reader (Tecan Austria GmbH, Salzburg, Austria).

[3] = target: T2, purified human BChE (Homo sapiens, UniProt P06276); test: biochemical; format: biochemical
T2 construct: possibly also a gift of Dr Florian Nachon (the sentence is ambiguous)
T2 sequence (P06276 29-602): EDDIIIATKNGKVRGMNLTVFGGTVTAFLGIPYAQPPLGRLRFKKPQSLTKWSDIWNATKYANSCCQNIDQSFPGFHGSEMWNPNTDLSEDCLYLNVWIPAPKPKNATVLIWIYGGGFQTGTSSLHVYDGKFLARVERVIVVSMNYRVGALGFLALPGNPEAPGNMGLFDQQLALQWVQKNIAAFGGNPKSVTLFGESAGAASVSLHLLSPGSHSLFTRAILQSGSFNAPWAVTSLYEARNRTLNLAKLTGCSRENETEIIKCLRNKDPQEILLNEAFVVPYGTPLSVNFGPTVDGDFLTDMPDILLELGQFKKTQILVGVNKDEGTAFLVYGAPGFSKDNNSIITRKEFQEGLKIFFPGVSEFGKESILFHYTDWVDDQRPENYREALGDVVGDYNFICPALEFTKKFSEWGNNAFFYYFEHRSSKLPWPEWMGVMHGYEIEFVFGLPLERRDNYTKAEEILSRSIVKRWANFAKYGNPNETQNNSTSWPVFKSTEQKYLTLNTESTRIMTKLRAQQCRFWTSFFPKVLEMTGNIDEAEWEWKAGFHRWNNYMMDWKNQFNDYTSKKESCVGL
Protocol: as §1, §2, §3, §4, §5

[4] = Reverse-phase thin-layer chromatographic lipophilicity (RF, RM0); format: physicochemical; settings: for RM0: intercept of RM = RM0 + bC; for b: slope of RM = RM0 + bC; for RF, Methanol/Water/Hydrochloric acid (conc.), mobile phase I / RF, Dioxane/Water/Hydrochloric acid (conc.), mobile phase II / RF, Methanol/Water/Hydrochloric acid (conc.), mobile phase II / RF, Acetone/Water/Hydrochloric acid (conc.), mobile phase III / RF, Dioxane/Water/Hydrochloric acid (conc.), mobile phase III / RF, Methanol/Water/Hydrochloric acid (conc.), mobile phase III / RF, Dioxane/Water/Hydrochloric acid (conc.), mobile phase IV / RF, Acetone/Water/Hydrochloric acid (conc.), mobile phase IV / RF, Methanol/Water/Hydrochloric acid (conc.), mobile phase IV / RF, Acetone/Water/Hydrochloric acid (conc.), mobile phase IX / RF, Methanol/Water/Hydrochloric acid (conc.), mobile phase IX / RF, Dioxane/Water/Hydrochloric acid (conc.), mobile phase V / RF, Acetone/Water/Hydrochloric acid (conc.), mobile phase V / RF, Methanol/Water/Hydrochloric acid (conc.), mobile phase V / RF, Dioxane/Water/Hydrochloric acid (conc.), mobile phase VI / RF, Acetone/Water/Hydrochloric acid (conc.), mobile phase VI / RF, Methanol/Water/Hydrochloric acid (conc.), mobile phase VI / RF, Acetone/Water/Hydrochloric acid (conc.), mobile phase VII / RF, Methanol/Water/Hydrochloric acid (conc.), mobile phase VII / RF, Acetone/Water/Hydrochloric acid (conc.), mobile phase VIII / RF, Methanol/Water/Hydrochloric acid (conc.), mobile phase VIII: RP-18 silica; for RF, Methanol/Water/Hydrochloric acid (conc.), mobile phase I: I = 90%MeOH/5%H2O/5%HCl; for RF, Dioxane/Water/Hydrochloric acid (conc.), mobile phase II: II = 80%Dioxane/15%H2O/5%HCl; for RF, Methanol/Water/Hydrochloric acid (conc.), mobile phase II: II = 85%MeOH/10%H2O/5%HCl; for RF, Acetone/Water/Hydrochloric acid (conc.), mobile phase III: III = 70%AC/25%H2O/5%HCl; for RF, Dioxane/Water/Hydrochloric acid (conc.), mobile phase III: III = 70%Dioxane/25%H2O/5%HCl; for RF, Methanol/Water/Hydrochloric acid (conc.), mobile phase III: III = 80%MeOH/15%H2O/5%HCl; for RF, Dioxane/Water/Hydrochloric acid (conc.), mobile phase IV: IV = 60%Dioxane/35%H2O/5%HCl; for RF, Acetone/Water/Hydrochloric acid (conc.), mobile phase IV: IV = 65%AC/30%H2O/5%HCl; for RF, Methanol/Water/Hydrochloric acid (conc.), mobile phase IV: IV = 75%MeOH/20%H2O/5%HCl; for RF, Acetone/Water/Hydrochloric acid (conc.), mobile phase IX: IX = 40%AC/55%H2O/5%HCl; for RF, Methanol/Water/Hydrochloric acid (conc.), mobile phase IX: IX = 50%MeOH/45%H2O/5%HCl; for RF, Dioxane/Water/Hydrochloric acid (conc.), mobile phase V: V = 50%Dioxane/45%H2O/5%HCl; for RF, Acetone/Water/Hydrochloric acid (conc.), mobile phase V: V = 60%AC/35%H2O/5%HCl; for RF, Methanol/Water/Hydrochloric acid (conc.), mobile phase V: V = 70%MeOH/25%H2O/5%HCl; for RF, Dioxane/Water/Hydrochloric acid (conc.), mobile phase VI: VI = 40%Dioxane/55%H2O/5%HCl; for RF, Acetone/Water/Hydrochloric acid (conc.), mobile phase VI: VI = 55%AC/40%H2O/5%HCl; for RF, Methanol/Water/Hydrochloric acid (conc.), mobile phase VI: VI = 65%MeOH/30%H2O/5%HCl; for RF, Acetone/Water/Hydrochloric acid (conc.), mobile phase VII: VII = 50%AC/45%H2O/5%HCl; for RF, Methanol/Water/Hydrochloric acid (conc.), mobile phase VII: VII = 60%MeOH/35%H2O/5%HCl; for RF, Acetone/Water/Hydrochloric acid (conc.), mobile phase VIII: VIII = 45%AC/50%H2O/5%HCl; for RF, Methanol/Water/Hydrochloric acid (conc.), mobile phase VIII: VIII = 55%MeOH/40%H2O/5%HCl
Protocol: Chromatographic determination of lipophilicity
Merck, Darmstadt, Germany). The mobile phase contained organic modifier (methanol, acetone or dioxane), water and hydrochloric acid.
Methanol was varied in the range […]
with an increment of 10%. […]
before chromatogram development. The solvent developing distance was 4.5 cm. Detection of […]
All experiments were performed at ambient temperature (22±2 °C). Retention parameters were calculated as previously described. […]

[5] = log (Ki/µM AChE), read-out: Y Measured 1 log(ki)Ache (converted)
[6] = ± standard error, 25 °C, ATCh substrate, read-out: Ki AChE
[7] = logarithm of Ki in µM, BChE, dependent variable of the QSAR model, read-out: Y Measured 2 log(ki)Bche, log (Ki/µM BChE) (converted)
[8] = ± standard error, 25 °C, ATCh substrate, read-out: Ki BChE
[9] = Acetone/Water/Hydrochloric acid (conc.)
[10] = Dioxane/Water/Hydrochloric acid (conc.)
[11] = Methanol/Water/Hydrochloric acid (conc.)

Compound	FRAP ([1]; 100 µM compound) [µM]	FRAP ([1]; 10 µM compound) [µM]	IS [2]	Ki [2, 5] [µM]	Ki [2, 6] [µM]	Ki [3, 7] [µM]	Ki [3, 8] [µM]	RM0 [4, 9]	b [4, 9]	RM0 [4, 10]	b [4, 10]	RM0 [4, 11]	b [4, 11]	RF, Methanol/Water/Hydrochloric acid (conc.), mobile phase I [4]	RF, Dioxane/Water/Hydrochloric acid (conc.), mobile phase II [4]	RF, Methanol/Water/Hydrochloric acid (conc.), mobile phase II [4]	RF, Acetone/Water/Hydrochloric acid (conc.), mobile phase III [4]	RF, Dioxane/Water/Hydrochloric acid (conc.), mobile phase III [4]	RF, Methanol/Water/Hydrochloric acid (conc.), mobile phase III [4]	RF, Dioxane/Water/Hydrochloric acid (conc.), mobile phase IV [4]	further results
Cc1cc(C(C)(C)C)c(O)c(C(C)(C)C)c1 [BHT, butylated hydroxytoluene, reference compound]	3021 ± 117	–	–	–	–	–	–	–	–	–	–	–	–	–	–	–	–	–	–	–	–
Clc1ccc2c(NCCNCC34CC5CC(CC(C5)C3)C4)ccnc2c1 [Compound 1]	20 ± 4	2.4 ± 1.3	1.8	1.2	1.2 ± 0.1	2.1	2.1 ± 0.2	1.738	2.883	0.8129	1.796	2.081	2.812	0.72	0.78	0.68	0.62	0.73	0.54	0.73	less potent inhibitors of BChE than compounds 3 or 4 [3]: about 3.2 times; RF, Acetone/Water/Hydrochloric acid (conc.), mobile phase IV [4]: 0.59; RF, Methanol/Water/Hydrochloric acid (conc.), mobile phase IV [4]: 0.55; RF, Acetone/Water/Hydrochloric acid (conc.), mobile phase IX [4]: 0.16; RF, Methanol/Water/Hydrochloric acid (conc.), mobile phase IX [4]: 0.15; RF, Dioxane/Water/Hydrochloric acid (conc.), mobile phase V [4]: 0.55; RF, Acetone/Water/Hydrochloric acid (conc.), mobile phase V [4]: 0.51; RF, Methanol/Water/Hydrochloric acid (conc.), mobile phase V [4]: 0.48; RF, Dioxane/Water/Hydrochloric acid (conc.), mobile phase VI [4]: 0.4; RF, Acetone/Water/Hydrochloric acid (conc.), mobile phase VI [4]: 0.41; RF, Methanol/Water/Hydrochloric acid (conc.), mobile phase VI [4]: 0.43; RF, Acetone/Water/Hydrochloric acid (conc.), mobile phase VII [4]: 0.36; RF, Methanol/Water/Hydrochloric acid (conc.), mobile phase VII [4]: 0.28; RF, Acetone/Water/Hydrochloric acid (conc.), mobile phase VIII [4]: 0.32; RF, Methanol/Water/Hydrochloric acid (conc.), mobile phase VIII [4]: 0.22
Clc1ccc2c(NCCCCNCC34CC5CC(CC(C5)C3)C4)ccnc2c1 [Compound 3]	38 ± 6	0	0.9	1	1	0.92	0.92 ± 0.04	1.838	3.04	0.7921	1.783	2.348	3.092	0.71	0.78	0.65	0.63	0.74	0.51	0.74	RF, Acetone/Water/Hydrochloric acid (conc.), mobile phase IV [4]: 0.58; RF, Methanol/Water/Hydrochloric acid (conc.), mobile phase IV [4]: 0.53; RF, Acetone/Water/Hydrochloric acid (conc.), mobile phase IX [4]: 0.15; RF, Methanol/Water/Hydrochloric acid (conc.), mobile phase IX [4]: 0.11; RF, Dioxane/Water/Hydrochloric acid (conc.), mobile phase V [4]: 0.55; RF, Acetone/Water/Hydrochloric acid (conc.), mobile phase V [4]: 0.51; RF, Methanol/Water/Hydrochloric acid (conc.), mobile phase V [4]: 0.44; RF, Dioxane/Water/Hydrochloric acid (conc.), mobile phase VI [4]: 0.41; RF, Acetone/Water/Hydrochloric acid (conc.), mobile phase VI [4]: 0.41; RF, Methanol/Water/Hydrochloric acid (conc.), mobile phase VI [4]: 0.37; RF, Acetone/Water/Hydrochloric acid (conc.), mobile phase VII [4]: 0.35; RF, Methanol/Water/Hydrochloric acid (conc.), mobile phase VII [4]: 0.25; RF, Acetone/Water/Hydrochloric acid (conc.), mobile phase VIII [4]: 0.3; RF, Methanol/Water/Hydrochloric acid (conc.), mobile phase VIII [4]: 0.18
Clc1ccc2c(NCCCCCCNCC34CC5CC(CC(C5)C3)C4)ccnc2c1 [Compound 4]	58 ± 10	1.9 ± 0.5	1.1	0.67	0.67 ± 0.02	0.76	0.76 ± 0.06	2.036	3.254	0.9103	1.922	2.899	3.742	0.72	0.78	0.66	0.6	0.73	0.47	0.72	RF, Acetone/Water/Hydrochloric acid (conc.), mobile phase IV [4]: 0.55; RF, Methanol/Water/Hydrochloric acid (conc.), mobile phase IV [4]: 0.49; RF, Acetone/Water/Hydrochloric acid (conc.), mobile phase IX [4]: 0.11; RF, Methanol/Water/Hydrochloric acid (conc.), mobile phase IX [4]: 0.06; RF, Dioxane/Water/Hydrochloric acid (conc.), mobile phase V [4]: 0.52; RF, Acetone/Water/Hydrochloric acid (conc.), mobile phase V [4]: 0.45; RF, Methanol/Water/Hydrochloric acid (conc.), mobile phase V [4]: 0.4; RF, Dioxane/Water/Hydrochloric acid (conc.), mobile phase VI [4]: 0.38; RF, Acetone/Water/Hydrochloric acid (conc.), mobile phase VI [4]: 0.37; RF, Methanol/Water/Hydrochloric acid (conc.), mobile phase VI [4]: 0.31; RF, Acetone/Water/Hydrochloric acid (conc.), mobile phase VII [4]: 0.33; RF, Methanol/Water/Hydrochloric acid (conc.), mobile phase VII [4]: 0.2; RF, Acetone/Water/Hydrochloric acid (conc.), mobile phase VIII [4]: 0.26; RF, Methanol/Water/Hydrochloric acid (conc.), mobile phase VIII [4]: 0.13
Nc1c2c(nc3ccccc13)CCCC2 [Tacrine, reference compound]	15 ± 2	3.4 ± 0.0	–	–	–	–	–	–	–	–	–	–	–	–	–	–	–	–	–	–	reducing power (in words) ([1]; 10 and 100 µM): negligible reducing power
Cc1c(C)c2c(c(C)c1O)CCC(C)(C(=O)O)O2 (stereo not shown) [Trolox, reference compound]	5812 ± 68	523 ± 8	–	–	–	–	–	–	–	–	–	–	–	–	–	–	–	–	–	–	–
